Here are results for six molecules from ChEMBL document CHEMBL1154613, “Antagonists of the calcium receptor. 2. Amino alcohol-based parathyroid hormone secretagogues” (J Med Chem, 2009).

Series [1] can be described thus: Half life in iv and po dosed rat. Conditions: in vivo. It counts as ADME, organism-based.
A short description of series [2]: Half life in iv and po dosed dog. In kind it is ADME, organism-based, Canis lupus familiaris. Conditions: in vivo.
Series [3] has as its system Rattus norvegicus. In words: Oral bioavailability in rat assessed as (R)-3-(3-cyano-4-(2-hydroxy-3-(2-methyl-1-(naphthalen-2-yl)propan-2-ylamino)propoxy)phenyl)propanoic acid levels. It counts as ADME, organism-based. To be noted: in vivo.
The subject of series [4] is Canis familiaris. Put plainly: Oral bioavailability in dog assessed as (R)-3-(3-cyano-4-(2-hydroxy-3-(2-methyl-1-(naphthalen-2-yl)propan-2-ylamino)propoxy)phenyl)propanoic acid levels. In kind it is ADME, organism-based, Canis lupus familiaris. Conditions: in vivo.
Series [5] deals with Canis familiaris. In words: Tmax in dog assessed as (R)-3-(3-cyano-4-(2-hydroxy-3-(2-methyl-1-(naphthalen-2-yl)propan-2-ylamino)propoxy)phenyl)propanoic acid levels at 23.4 mg/kg, po. In kind it is ADME, organism-based, Canis lupus familiaris. Set-up: dose 23.4 mg/kg, route oral. To be noted: in vivo.
Series [6] has as its system Canis familiaris. In words: Cmax in dog assessed as (R)-3-(3-cyano-4-(2-hydroxy-3-(2-methyl-1-(naphthalen-2-yl)propan-2-ylamino)propoxy)phenyl)propanoic acid levels at 23.4 mg/kg, po. It counts as ADME, organism-based, Canis lupus familiaris. On the set-up: dose 23.4 mg/kg, route oral. Conditions: in vivo.
Series [7] concerns the target Beta-2 adrenergic receptor (Homo sapiens, UniProt P07550). Put plainly: Inhibition of beta2 adrenergic receptor.
A short description of series [8]: Mean residence time in iv and po dosed rat. In kind it is ADME, organism-based. To be noted: in vivo.
Series [9] is described as follows: Mean residence time in iv and po dosed dog. In kind it is ADME, organism-based, Canis lupus familiaris. To be noted: in vivo.
Series [10] concerns the target T1, Extracellular calcium-sensing receptor (Homo sapiens, UniProt P41180).
T1 sequence (P41180 whole entry): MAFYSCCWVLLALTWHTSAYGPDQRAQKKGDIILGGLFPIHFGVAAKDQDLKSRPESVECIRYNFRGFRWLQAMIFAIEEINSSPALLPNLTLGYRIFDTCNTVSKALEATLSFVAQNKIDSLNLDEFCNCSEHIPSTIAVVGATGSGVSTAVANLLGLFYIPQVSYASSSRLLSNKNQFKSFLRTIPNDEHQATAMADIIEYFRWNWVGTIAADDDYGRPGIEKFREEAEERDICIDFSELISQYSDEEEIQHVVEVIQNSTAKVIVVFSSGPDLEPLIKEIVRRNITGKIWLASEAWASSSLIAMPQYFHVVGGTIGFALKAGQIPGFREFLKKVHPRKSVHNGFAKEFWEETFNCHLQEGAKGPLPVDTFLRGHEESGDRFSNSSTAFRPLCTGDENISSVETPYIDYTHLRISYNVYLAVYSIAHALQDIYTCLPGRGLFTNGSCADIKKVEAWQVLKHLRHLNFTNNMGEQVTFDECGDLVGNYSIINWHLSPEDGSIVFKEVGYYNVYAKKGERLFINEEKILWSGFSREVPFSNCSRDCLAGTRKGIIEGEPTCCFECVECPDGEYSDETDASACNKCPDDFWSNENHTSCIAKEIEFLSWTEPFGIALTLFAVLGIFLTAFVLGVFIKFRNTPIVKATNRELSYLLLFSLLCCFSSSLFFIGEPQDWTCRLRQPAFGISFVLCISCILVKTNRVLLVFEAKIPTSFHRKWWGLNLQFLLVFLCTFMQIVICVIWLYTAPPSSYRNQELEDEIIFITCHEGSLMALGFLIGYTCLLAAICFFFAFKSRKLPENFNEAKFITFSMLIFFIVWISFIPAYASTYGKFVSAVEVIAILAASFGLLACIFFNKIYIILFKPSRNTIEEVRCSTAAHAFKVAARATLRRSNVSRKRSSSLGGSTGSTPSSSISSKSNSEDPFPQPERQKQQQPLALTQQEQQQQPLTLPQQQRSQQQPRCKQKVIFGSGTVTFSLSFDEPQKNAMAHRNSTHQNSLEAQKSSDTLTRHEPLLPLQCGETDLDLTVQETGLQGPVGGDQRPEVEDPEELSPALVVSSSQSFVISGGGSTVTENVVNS
In words: Antagonist activity at human calcium receptor expressed in HEK293 4.0-7 cells assessed as inhibition of intracellular calcium release by FLIPR assay. In kind it is functional, cell-based.

Series [11] deals with T1, Extracellular calcium-sensing receptor. Put plainly: Displacement of [3H](2-(2-hydroxyphenyl)-6-methyl-5-(2-methylpropyl)-3-(2-phenylethyl)-4(3H)-pyrimidinone) from human calcium receptor expressed in human HEK293 4.0-7 cells by liquid scintillation counting. It counts as cell-based.
The target of series [12] is Sodium-dependent serotonin transporter (Homo sapiens, UniProt P31645). Put plainly: Inhibition of SERT.
For series [13], the target named is Sodium-dependent noradrenaline transporter (Homo sapiens, UniProt P23975). Put plainly: Inhibition of NET.
The target of series [14] is Sodium-dependent dopamine transporter (Homo sapiens, UniProt Q01959). Put plainly: Inhibition of DAT.
The target of another series is Cytochrome P450 2D6 (Homo sapiens, UniProt P10635). In words: Inhibition of CYP2D6. It counts as ADME.
The nature of series [15]: Clearance in iv and po dosed rat. It counts as ADME, organism-based. To be noted: in vivo.
Series [16] is described as follows: Volume of distribution at steady state in iv and po dosed rat. In kind it is ADME, organism-based. To be noted: in vivo, read-out: Vdss.
The nature of series [17]: Oral bioavailability in rat. Conditions: in vivo. It counts as ADME, organism-based.
The target in series [18] is Voltage-gated inwardly rectifying potassium channel KCNH2 (Homo sapiens, UniProt Q12809).
The nature of series [19]: Clearance in iv and po dosed dog. Conditions: in vivo. In kind it is ADME, organism-based, Canis lupus familiaris.
A short description of series [20]: Volume of distribution at steady state in iv and po dosed dog. Conditions: in vivo, read-out: Vdss. In kind it is ADME, organism-based, Canis lupus familiaris.
Series [21] concerns Rattus norvegicus. In words: Metabolic stability in intraportal dosed rat assessed as hepatic first pass. Conditions: in vivo, other. It counts as ADME, organism-based.
Series [22] concerns Canis familiaris. Put plainly: Metabolic stability in intraportal dosed dog assessed as hepatic first pass. In kind it is ADME, organism-based, Canis lupus familiaris. To be noted: in vivo, other.

Bounds are passed on as bounds.

Sequence of Voltage-gated inwardly rectifying potassium channel KCNH2 (Q12809 whole entry): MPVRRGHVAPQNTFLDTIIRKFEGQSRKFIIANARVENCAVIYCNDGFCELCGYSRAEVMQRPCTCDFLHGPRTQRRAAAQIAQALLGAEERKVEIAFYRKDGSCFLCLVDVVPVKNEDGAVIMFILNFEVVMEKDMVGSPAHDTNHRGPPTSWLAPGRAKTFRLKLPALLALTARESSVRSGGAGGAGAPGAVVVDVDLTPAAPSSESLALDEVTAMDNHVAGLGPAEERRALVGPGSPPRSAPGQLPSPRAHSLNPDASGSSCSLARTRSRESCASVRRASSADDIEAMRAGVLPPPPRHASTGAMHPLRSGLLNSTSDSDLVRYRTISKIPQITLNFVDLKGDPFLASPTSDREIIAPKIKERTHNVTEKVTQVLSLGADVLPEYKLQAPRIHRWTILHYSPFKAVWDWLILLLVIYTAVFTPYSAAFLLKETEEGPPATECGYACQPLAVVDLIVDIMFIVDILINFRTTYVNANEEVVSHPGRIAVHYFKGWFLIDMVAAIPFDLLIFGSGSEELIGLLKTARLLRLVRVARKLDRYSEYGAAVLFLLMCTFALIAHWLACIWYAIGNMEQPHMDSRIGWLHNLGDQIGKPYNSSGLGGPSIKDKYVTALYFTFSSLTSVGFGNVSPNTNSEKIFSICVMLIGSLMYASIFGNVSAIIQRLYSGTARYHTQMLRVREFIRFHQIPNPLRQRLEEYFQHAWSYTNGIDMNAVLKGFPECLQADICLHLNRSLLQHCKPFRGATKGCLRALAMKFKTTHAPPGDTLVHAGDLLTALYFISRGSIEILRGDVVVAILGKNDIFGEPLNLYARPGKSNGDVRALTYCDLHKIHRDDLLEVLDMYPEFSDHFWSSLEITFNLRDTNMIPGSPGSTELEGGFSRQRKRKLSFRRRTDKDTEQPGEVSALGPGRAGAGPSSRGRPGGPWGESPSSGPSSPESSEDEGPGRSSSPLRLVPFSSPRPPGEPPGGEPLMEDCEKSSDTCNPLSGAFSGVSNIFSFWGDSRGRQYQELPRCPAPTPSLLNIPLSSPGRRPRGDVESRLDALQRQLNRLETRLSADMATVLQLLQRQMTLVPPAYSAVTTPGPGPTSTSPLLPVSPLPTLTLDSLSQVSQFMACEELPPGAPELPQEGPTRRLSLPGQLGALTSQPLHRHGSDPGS
Sequence of Sodium-dependent dopamine transporter (Q01959 whole entry): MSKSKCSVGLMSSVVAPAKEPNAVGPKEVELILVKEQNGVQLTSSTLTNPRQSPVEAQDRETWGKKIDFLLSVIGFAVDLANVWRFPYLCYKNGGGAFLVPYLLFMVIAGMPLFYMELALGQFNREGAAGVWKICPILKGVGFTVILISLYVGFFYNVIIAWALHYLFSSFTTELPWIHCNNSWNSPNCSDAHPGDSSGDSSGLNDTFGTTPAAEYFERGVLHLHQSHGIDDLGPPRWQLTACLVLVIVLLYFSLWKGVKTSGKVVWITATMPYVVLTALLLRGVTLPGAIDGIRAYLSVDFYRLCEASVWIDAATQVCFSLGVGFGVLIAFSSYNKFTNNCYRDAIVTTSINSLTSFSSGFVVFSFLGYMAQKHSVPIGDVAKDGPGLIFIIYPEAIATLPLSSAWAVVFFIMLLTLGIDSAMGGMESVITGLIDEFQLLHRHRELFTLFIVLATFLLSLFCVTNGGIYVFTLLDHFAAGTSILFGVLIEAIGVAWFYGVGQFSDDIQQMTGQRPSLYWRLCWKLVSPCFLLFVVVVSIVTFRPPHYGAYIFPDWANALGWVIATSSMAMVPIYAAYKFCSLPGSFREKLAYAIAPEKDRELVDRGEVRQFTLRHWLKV
Sequence of Sodium-dependent serotonin transporter (P31645 whole entry): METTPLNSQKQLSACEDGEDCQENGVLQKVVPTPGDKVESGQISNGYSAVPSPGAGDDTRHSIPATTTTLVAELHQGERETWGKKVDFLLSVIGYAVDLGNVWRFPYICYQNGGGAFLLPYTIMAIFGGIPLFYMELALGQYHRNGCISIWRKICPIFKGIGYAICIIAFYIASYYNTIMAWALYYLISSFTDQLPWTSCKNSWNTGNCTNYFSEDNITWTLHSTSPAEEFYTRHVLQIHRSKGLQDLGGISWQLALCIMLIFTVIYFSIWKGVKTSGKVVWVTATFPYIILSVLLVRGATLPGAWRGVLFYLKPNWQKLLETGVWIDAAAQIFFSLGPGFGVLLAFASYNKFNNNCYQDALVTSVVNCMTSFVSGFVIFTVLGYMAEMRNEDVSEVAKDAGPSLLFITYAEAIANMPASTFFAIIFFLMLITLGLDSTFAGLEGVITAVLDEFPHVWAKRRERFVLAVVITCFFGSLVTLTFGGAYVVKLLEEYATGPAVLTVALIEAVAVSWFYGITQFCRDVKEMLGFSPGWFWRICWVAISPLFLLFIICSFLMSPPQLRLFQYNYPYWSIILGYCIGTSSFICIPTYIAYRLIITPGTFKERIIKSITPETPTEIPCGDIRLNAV
Sequence of Beta-2 adrenergic receptor (P07550 whole entry): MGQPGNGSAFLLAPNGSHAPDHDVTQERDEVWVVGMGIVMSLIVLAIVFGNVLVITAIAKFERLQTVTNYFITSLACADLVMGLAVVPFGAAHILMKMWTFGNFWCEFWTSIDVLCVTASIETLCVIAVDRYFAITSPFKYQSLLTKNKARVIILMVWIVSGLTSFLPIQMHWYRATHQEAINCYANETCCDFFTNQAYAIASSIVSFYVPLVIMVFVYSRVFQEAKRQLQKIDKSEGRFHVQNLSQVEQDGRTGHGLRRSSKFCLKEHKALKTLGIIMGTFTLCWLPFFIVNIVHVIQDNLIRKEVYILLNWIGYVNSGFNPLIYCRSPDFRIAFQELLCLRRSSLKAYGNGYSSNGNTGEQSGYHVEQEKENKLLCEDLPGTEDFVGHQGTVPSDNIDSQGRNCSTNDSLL
Sequence of Cytochrome P450 2D6 (P10635 whole entry): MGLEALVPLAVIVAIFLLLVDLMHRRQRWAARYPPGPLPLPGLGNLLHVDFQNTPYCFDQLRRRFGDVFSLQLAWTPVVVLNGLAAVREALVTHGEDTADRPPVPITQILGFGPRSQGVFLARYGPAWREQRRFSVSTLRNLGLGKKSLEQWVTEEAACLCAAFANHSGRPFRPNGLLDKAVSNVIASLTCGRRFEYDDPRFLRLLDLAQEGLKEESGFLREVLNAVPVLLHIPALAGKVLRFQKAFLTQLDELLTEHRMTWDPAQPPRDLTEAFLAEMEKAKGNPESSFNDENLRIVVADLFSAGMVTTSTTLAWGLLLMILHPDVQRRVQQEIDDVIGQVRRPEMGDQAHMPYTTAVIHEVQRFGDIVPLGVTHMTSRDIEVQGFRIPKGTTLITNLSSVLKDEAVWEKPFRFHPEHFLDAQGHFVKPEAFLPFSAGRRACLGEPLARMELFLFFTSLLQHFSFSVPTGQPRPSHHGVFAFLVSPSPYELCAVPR
Sequence of Sodium-dependent noradrenaline transporter (P23975 whole entry): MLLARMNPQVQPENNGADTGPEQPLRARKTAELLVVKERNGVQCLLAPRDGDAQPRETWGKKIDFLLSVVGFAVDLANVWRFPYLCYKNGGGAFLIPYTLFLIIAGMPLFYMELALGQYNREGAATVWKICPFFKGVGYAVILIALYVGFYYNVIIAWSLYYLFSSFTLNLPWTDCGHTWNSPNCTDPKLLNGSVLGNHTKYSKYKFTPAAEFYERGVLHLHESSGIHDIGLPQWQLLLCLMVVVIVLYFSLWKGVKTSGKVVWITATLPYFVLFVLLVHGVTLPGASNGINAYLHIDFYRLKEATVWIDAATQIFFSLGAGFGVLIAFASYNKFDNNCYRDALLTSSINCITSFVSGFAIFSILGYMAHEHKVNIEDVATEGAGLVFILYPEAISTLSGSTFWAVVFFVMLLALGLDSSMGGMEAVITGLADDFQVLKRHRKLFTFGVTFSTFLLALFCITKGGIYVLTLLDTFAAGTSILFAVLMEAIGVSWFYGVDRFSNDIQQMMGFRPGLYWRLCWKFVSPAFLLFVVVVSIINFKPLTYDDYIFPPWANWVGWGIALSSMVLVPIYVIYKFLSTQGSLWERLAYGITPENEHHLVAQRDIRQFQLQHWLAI

Turning to `CCOC(=O)CCc1ccc(OC[C@H](O)CNC(C)(C)Cc2ccc3ccccc3c2)c(C#N)c1.Cl`, the half-life in series [1] was 52.8 min; in [2] it was 73.8 min. Also, the F in the series on Rattus norvegicus [3] is given as 9.5%; in the series with Canis familiaris [4], 9.1%. Also, the time of peak concentration (Tmax) in the series on Canis familiaris [5] is 30 min. In addition, the highest concentration (Cmax) in the series on Canis familiaris [6] was 597 ng/mL. Further, the concentration for half-maximal inhibition (IC50) is 14000 nM in series [7]; 34 nM in [10]; 3 nM in series [11]; 78 nM in series [12]; 37 nM in [13]; 59 nM in series [14]. Moreover, at Cytochrome P450 2D6, the concentration for half-maximal inhibition (IC50) is 3000 nM. The figures for the MRT in series [8] and in series [9] were 42 min and 82.2 min, respectively.

As for `CC(C)(Cc1ccc2ccccc2c1)NC[C@@H](O)COc1ccc(CCC(=O)O)cc1`, the half-life in [1] was 24 min. In [15], the clearance is 118 mL/min/kg. Besides, in [16], the Vd came to 2.1 L/kg. In series [17], this molecule came in with a bioavailability of 4%. For the same molecule, the IC50 in series [7] is greater than 30000 nM; in series [10], greater than 25000 nM; in series [11], 4800 nM; in series [12] it was 68 nM; in series [13], 16000 nM; in series [14], 3700 nM. Further, the IC50 was 52000 nM on Cytochrome P450 2D6 and 38.5 nM in series [18]. This molecule showed a mean residence time (MRT) in [8] of 18 min.

`CC(C)(Cc1ccc2ccccc2c1)NC[C@@H](O)COc1ccc(CCC(=O)O)cc1C#N`: the half-life in [1] is 33.6 min; in series [2], 73.8 min. The clearance in series [15] came to 63.6 mL/min/kg; in [19], 15.4 mL/min/kg. In addition, the Vd was 1.18 L/kg in series [16] and 0.78 L/kg in series [20]. This molecule registered a bioavailability in series [17] of 0.29%. The Activity in the series with Rattus norvegicus [21] was 68%; in the series on Canis familiaris [22], 90%. Further, the half-inhibitory concentration (IC50) in series [7] is greater than 30000 nM; in series [10], 200 nM; in series [11], 22 nM; in [12], 23 nM; in series [13], 5400 nM; in series [14] it was 2800 nM. Moreover, the IC50 on Cytochrome P450 2D6 was greater than 50000 nM; in [18], 32.7 nM. Also, the mean residence time (MRT) turned out to be 19.2 min in series [8] and 51 min in series [9].

On to `CC(C)(Cc1ccc2ccccc2c1)NC[C@@H](O)COc1ccccc1C#N`, for which the IC50 in series [10] was 18 nM; in series [11], 3 nM; in series [12] it was 3 nM; in series [13], 3 nM; in [14], 2 nM; against Cytochrome P450 2D6, 100 nM. The IC50 in series [18] was determined as 3.2 nM.

Consider `COc1ccc(CC(C)(C)NC[C@H](O)COc2cccc3[nH]c(=O)[nH]c23)cc1`, for which the IC50 was 1.3 nM in series [7]; 11000 nM in series [10]; 31800 nM in series [11]; 1260 nM against Cytochrome P450 2D6; 11.8 nM in series [18].

In the case of `CC(C)(Cc1ccc2ccccc2c1)NC[C@@H](O)COc1cccc(Cl)c1C#N`, the half-life in series [1] is 126 min. This molecule had a clearance in series [15] of 73.8 mL/min/kg. Besides, in series [16], the Vd turned out to be 11 L/kg. The same molecule registered a bioavailability in series [17] of 11.4%. Further, the IC50 is 4300 nM in series [7]; 58 nM in series [10]; 3 nM in [11]; 45 nM against Cytochrome P450 2D6; 3 nM in [18]. Further, the MRT in series [8] was found to be 150 min.
